# Data: the supplement of paper PMC8960247
# Structures can show the parent of a compound that is named as a salt. ± gives the standard error.
# System: 621-103 (TSC2-rescued)
# Test: relative viability vs DMSO; higher = less cytotoxic
# Details: 0.0001 µM; serum: 10% FBS; 72 h
# 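Also: immortalized renal angiomyolipoma cells stably carrying empty vector or TSC2, dosed in 384-well plates in DMEM, viability normalized to vehicle-treated wells within each plate.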
row,Structure (SMILES),relative viability [%]
1,CCC(C)n1ncn(-c2ccc(N3CCN(c4ccc(OCC5COC(Cn6cncn6)(c6ccc(Cl)cc6Cl)O5)cc4)CC3)cc2)c1=O (configuration not stated) [Itraconazole (Sporanox)],98.8 ± 5.2
2,CCCNC(=O)Nc1ccc(Oc2ncnc3cc(OC)c(OC)cc23)cc1Cl [KRN 633],85.6 ± 4.4
3,O=C(c1ccc(/C=C/c2n[nH]c3ccccc23)cc1)N1CCNCC1 [KW 2449],102.2 ± 0.34
4,O=C(c1ccc(F)cc1)C1CCN(CCn2c(=O)[nH]c3ccccc3c2=O)CC1 [Ketanserin (Vulketan Gel)],113.6 ± 1.1
5,O=C(c1ccccc1)c1ccc2n1CCC2C(=O)O (configuration not stated) [Ketorolac],96.9 ± 1.1
6,CCCCCCCCCCCCCCCC(=O)OC[C@H](O)[C@H]1OC(=O)C(O)=C1O [L-Ascorbyl 6-palmitate],99.8 ± 2.5
7,Cc1[nH]c2ccccc2c1CCNCc1ccc(/C=C/C(=O)NO)cc1 [LBH-589 (Panobinostat)],97.6 ± 1.1
8,Cc1c(C(=O)Nc2ccc(N3C[C@@H](C)O[C@@H](C)C3)nc2)cccc1-c1ccc(OC(F)(F)F)cc1 [LDE225],92.8 ± 2.8
9,CS(=O)(=O)CCNCc1ccc(-c2ccc3ncnc(Nc4ccc(OCc5cccc(F)c5)c(Cl)c4)c3c2)o1 [Lapatinib Ditosylate],97.35 ± 0.2
10,Nc1cccc2c1CN(C1CCC(=O)NC1=O)C2=O (configuration not stated) [Lenalidomide],101 ± 1.6
11,N#Cc1ccc(C(c2ccc(C#N)cc2)n2cncn2)cc1 [Letrozole],103 ± 1.7
12,CC(=O)NC[C@H]1CN(c2ccc(N3CCOCC3)c(F)c2)C(=O)O1 [Linezolid],105 ± 5.3
13,CN(C)C(=O)C(CCN1CCC(O)(c2ccc(Cl)cc2)CC1)(c1ccccc1)c1ccccc1 [Loperamide HCl],91.7 ± 4.4
14,O=c1cc(-c2ccc(O)c(O)c2)oc2cc(O)cc(O)c12 [Luteolin (Luteolol)],107.6 ± 0.4
15,Cn1cc(/C=C/C(=O)c2cccc(F)c2)cc1/C=C/C(=O)NO [MC1568],99.97 ± 0.52
16,CC(C)C[C@@H](C=O)NC(=O)[C@H](CC(C)C)NC(=O)[C@H](CC(C)C)NC(=O)OCc1ccccc1 [MG-132],99.8 ± 3.3
17,Nc1ccccc1NC(=O)c1ccc(CNc2nccc(-c3cccnc3)n2)cc1 [MGCD0103 (Mocetinostat)],99.5 ± 1.3
18,O=C(CN1C(=O)C2(CCCC2)NC[C@H]1c1cc(F)cc(F)c1)Nc1ccc2c(c1)C[C@@]1(C2)C(=O)Nc2ncccc21 [MK 3207 hydrochloride],103 ± 1.3
19,O=C(O)CC[C@H]1CC[C@@](c2cc(F)ccc2F)(S(=O)(=O)c2ccc(Cl)cc2)CC1 [MK-0752],115 ± 4.2

row,Structure (SMILES),relative viability [%]
1,NC1(c2ccc(-c3nc4ccn5c(=O)[nH]nc5c4cc3-c3ccccc3)cc2)CCC1 [MK-2206],79.7 ± 4.3
2,S=C(NCc1ccc2c(c1)OCO2)N1CCN(c2ncnc3c2oc2ccccc23)CC1 [MP-470],88.5 ± 5.1
3,Nc1ccccc1NC(=O)c1ccc(CNC(=O)OCc2cccnc2)cc1 [MS-275],100.1 ± 0.8
4,COC(=O)C1=C(C)NC(C)=C(C(=O)OCCN2CCN(C(c3ccccc3)c3ccccc3)CC2)C1c1cccc([N+](=O)[O-])c1 (configuration not stated) [Manidipine HCl (CV-4093)],90.9 ± 2
5,COC(=O)C1=C(C)NC(C)=C(C(=O)OCCN2CCN(C(c3ccccc3)c3ccccc3)CC2)C1c1cccc([N+](=O)[O-])c1 (configuration not stated) [Manidipine],109 ± 3.1
6,CNCCCC12CCC(c3ccccc31)c1ccccc12 [Maprotiline HCl],101 ± 1.2
7,Cc1nnc(C(C)C)n1[C@H]1C[C@H]2CC[C@@H](C1)N2CC[C@H](NC(=O)C1CCC(F)(F)CC1)c1ccccc1 [Maraviroc (Selzentry)],100.6 ± 0.78
8,Cc1ccc(NC(=O)c2ccc(CN3CCN(C)CC3)cc2)cc1Nc1nc(-c2cccnc2)cs1 [Masitinib (AB1010)],104.3 ± 0.28
9,Cc1[nH]c(=O)c(C#N)cc1-c1ccncc1 [Milrinone (Primacor)],95.74 ± 0.27
10,O=C1c2c(O)ccc(O)c2C(=O)c2c(NCCNCCO)ccc(NCCNCCO)c21 [Mitoxantrone],94.9 ± 2.3
11,NC(=O)c1ncn([C@@H]2O[C@H](CO)[C@@H](O)[C@H]2O)c1O [Mizoribine],104.1 ± 0.62
12,N=C(N)NC(=N)N1CCOCC1 [Moroxydine],87.36 ± 0.38
13,CC1(C)CNc2cc(NC(=O)c3cccnc3NCc3ccncc3)ccc21 [Motesanib DiPhosphate],94.7 ± 3.1
14,FC(F)(F)c1ccc(/C=C/c2nc(COc3ccc(CCCCn4ccnn4)cc3)co2)cc1 [Mubritinib (TAK 165)],112 ± 3.3
15,CC(C)(C)c1[nH]cnc1/C=c1\[nH]c(=O)/c(=C/c2ccccc2)[nH]c1=O [NPI-2358],86.9 ± 4.1
16,CC(C)(Cc1ccc2ccccc2c1)NC[C@@H](O)COc1cccc(Cl)c1C#N [NPS-2143],111 ± 4.1
17,CCNC(=O)c1noc(-c2cc(C(C)C)c(O)cc2O)c1-c1ccc(CN2CCOCC2)cc1 [NVP-AUY922],17.5 ± 0.57
18,CCNC(=O)c1cc2c(-c3cc(OCCN4CCCC4)c(Cl)cc3Cl)nc(N)nc2s1 [NVP-BEP800],101 ± 2.1
19,Fc1cc(-c2cccc3ncc(-c4cnn(C5CCNCC5)c4)nc23)cc(F)c1CN1CCOCC1 [NVP-BSK805 dihydrochloride],88.7 ± 5.9

# Same assay, conditions: 0.001 µM; serum: 10% FBS; 72 h
row,Structure (SMILES),relative viability [%]
1,CCC(C)n1ncn(-c2ccc(N3CCN(c4ccc(OCC5COC(Cn6cncn6)(c6ccc(Cl)cc6Cl)O5)cc4)CC3)cc2)c1=O (configuration not stated) [Itraconazole (Sporanox)],86.8 ± 1.1
2,CCCNC(=O)Nc1ccc(Oc2ncnc3cc(OC)c(OC)cc23)cc1Cl [KRN 633],95.9 ± 4.2
3,O=C(c1ccc(/C=C/c2n[nH]c3ccccc23)cc1)N1CCNCC1 [KW 2449],101.3 ± 0.97
4,O=C(c1ccc(F)cc1)C1CCN(CCn2c(=O)[nH]c3ccccc3c2=O)CC1 [Ketanserin (Vulketan Gel)],103 ± 2.4
5,O=C(c1ccccc1)c1ccc2n1CCC2C(=O)O (configuration not stated) [Ketorolac],121 ± 6.7
6,CCCCCCCCCCCCCCCC(=O)OC[C@H](O)[C@H]1OC(=O)C(O)=C1O [L-Ascorbyl 6-palmitate],105.8 ± 0.61
7,Cc1[nH]c2ccccc2c1CCNCc1ccc(/C=C/C(=O)NO)cc1 [LBH-589 (Panobinostat)],85.6 ± 1.8
8,Cc1c(C(=O)Nc2ccc(N3C[C@@H](C)O[C@@H](C)C3)nc2)cccc1-c1ccc(OC(F)(F)F)cc1 [LDE225],113 ± 7.7
9,CS(=O)(=O)CCNCc1ccc(-c2ccc3ncnc(Nc4ccc(OCc5cccc(F)c5)c(Cl)c4)c3c2)o1 [Lapatinib Ditosylate],96.4 ± 3.8
10,Nc1cccc2c1CN(C1CCC(=O)NC1=O)C2=O (configuration not stated) [Lenalidomide],98.8 ± 1
11,N#Cc1ccc(C(c2ccc(C#N)cc2)n2cncn2)cc1 [Letrozole],105 ± 2
12,CC(=O)NC[C@H]1CN(c2ccc(N3CCOCC3)c(F)c2)C(=O)O1 [Linezolid],110 ± 4.4
13,CN(C)C(=O)C(CCN1CCC(O)(c2ccc(Cl)cc2)CC1)(c1ccccc1)c1ccccc1 [Loperamide HCl],84.8 ± 2.2
14,O=c1cc(-c2ccc(O)c(O)c2)oc2cc(O)cc(O)c12 [Luteolin (Luteolol)],103 ± 3.2
15,Cn1cc(/C=C/C(=O)c2cccc(F)c2)cc1/C=C/C(=O)NO [MC1568],98 ± 1
16,CC(C)C[C@@H](C=O)NC(=O)[C@H](CC(C)C)NC(=O)[C@H](CC(C)C)NC(=O)OCc1ccccc1 [MG-132],93.4 ± 2.7
17,Nc1ccccc1NC(=O)c1ccc(CNc2nccc(-c3cccnc3)n2)cc1 [MGCD0103 (Mocetinostat)],102 ± 1.1
18,O=C(CN1C(=O)C2(CCCC2)NC[C@H]1c1cc(F)cc(F)c1)Nc1ccc2c(c1)C[C@@]1(C2)C(=O)Nc2ncccc21 [MK 3207 hydrochloride],103 ± 1.4
19,O=C(O)CC[C@H]1CC[C@@](c2cc(F)ccc2F)(S(=O)(=O)c2ccc(Cl)cc2)CC1 [MK-0752],108 ± 0.7
